Measured values published in patent US10010539B2, “Pyrazole, triazole and tetrazole orexin receptor antagonists” (MERCK SHARP & DOHME CORP., priority 2014, dated 2018).

Legend:
human orexin-2 receptor = human orexin-2 receptor (Homo sapiens (Human), UniProt O43614); experiment: FLIPR Ca2+ Flux Assay, orexin-2 receptor (hOX2R FLIPR); format: cell-based; details: CHO cells expressing the human orexin-2 receptor; agonist 70 pM Ala-6,12 human orexin-A
Experimental: (§1) The utility of the compounds in accordance with the present invention as orexin receptor OX1R and/or OX2R antagonists may be readily determined without undue experimentation by methodology well known in the art, including the “FLIPR Ca^2+ Flux Assay” (Okumura et al., Biochem. Biophys. Res. Comm. 280:976-981, 2001). In a typical experiment the OX1 and OX2 receptor antagonistic activity of the compounds of the present invention was determined in accordance with the following experimental method. For intracellular calcium measurements, Chinese hamster ovary (CHO) cells expressing the rat orexin-1 receptor or the human orexin-2 receptor, are grown in Iscove's modified DMEM containing 2 mM L-glutamine, […], 1% hypoxanthine-thymidine supplement, 100 U/ml penicillin, 100 μg/ml streptomycin and 10% heat-inactivated fetal calf serum (FCS). The cells are seeded at 20,000 cells/well into Becton-Dickinson black 384-well clear bottom sterile plates coated with poly-D-lysine. All reagents were from GIBCO-Invitrogen Corp. The seeded plates are incubated overnight at 37° C. and 5% CO2. Ala-6,12 human orexin-A as the agonist is prepared as a 1 mM stock solution in 1% bovine serum albumin (BSA) and diluted in assay buffer (HBSS containing 20 mM HEPES, 0.1% BSA and 2.5 mM probenecid, pH7.4) for use in the assay at a final concentration of 70 pM. Test compounds are prepared as 10 mM stock solution in DMSO, then diluted in 384-well plates, first in DMSO, then assay buffer. On the day of the assay, cells are washed 3 times with 100 μl assay buffer and then incubated for 60 min (37° C., 5% CO2) in 60 μl assay buffer containing 1 μM Fluo-4AM ester, 0.02% pluronic acid, and 1% BSA. The dye loading solution is then aspirated and cells are washed 3 times with 100 μl assay buffer. 30 μl of that same buffer is left in each well. Within the Fluorescent Imaging Plate Reader (FLIPR, Molecular Devices), test compounds are added to the plate in a volume of 25 μl, incubated for 5 min and finally 25 μl of agonist is added. Fluorescence is measured for each well at 1 second intervals for 5 minutes and the height of each fluorescence peak is compared to the height of the fluorescence peak induced by 70 pM Ala-6,12 orexin-A with buffer in place of antagonist. For each antagonist, IC50 value (the concentration of compound needed to inhibit 50% of the agonist response) is determined. Alternatively, compound potency can be assessed by a radioligand binding assay (described in Bergman et. al. Bioorg. Med. Chem. Lett. 2008, 18, 1425-1430) in which the inhibition constant (Ki) is determined in membranes prepared from CHO cells expressing either the OX1 or OX2 receptor. The intrinsic orexin receptor antagonist activity of a compound which may be used in the present invention may be determined by these assays.

[1] = molecular target: hOXIR (orexin-1 receptor) (Homo sapiens, UniProt O43613); experiment: FLIPR Ca2+ Flux Assay, orexin-1 receptor (hOXIR FLIPR); format: cell-based; details: CHO cells expressing the orexin-1 receptor (method text: rat; table head: hOXIR); agonist 70 pM Ala-6,12 human orexin-A
Experimental: as §1

Chain of human orexin-2 receptor (O43614 whole entry): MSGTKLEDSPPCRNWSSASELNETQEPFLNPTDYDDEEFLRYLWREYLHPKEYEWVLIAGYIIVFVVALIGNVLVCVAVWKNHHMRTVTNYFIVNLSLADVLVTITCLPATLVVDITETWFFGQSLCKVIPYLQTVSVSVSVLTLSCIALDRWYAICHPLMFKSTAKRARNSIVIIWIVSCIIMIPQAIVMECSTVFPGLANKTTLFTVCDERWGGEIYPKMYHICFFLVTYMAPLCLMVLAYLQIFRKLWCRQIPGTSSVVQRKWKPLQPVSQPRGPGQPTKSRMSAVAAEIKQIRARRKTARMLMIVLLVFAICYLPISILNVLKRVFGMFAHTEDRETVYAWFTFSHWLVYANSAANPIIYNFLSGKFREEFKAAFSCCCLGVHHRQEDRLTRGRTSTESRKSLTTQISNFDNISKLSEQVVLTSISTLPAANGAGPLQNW

## Cc1cccc(-n2nccn2)c1C(=O)N1C[C@H](n2ncc(C(C)(C)O)n2)CC[C@H]1C [Example 53, 2-{2-[(3R,6R)-6-methyl-1-{[2-methyl-6-(2H-1,2,3-triazol-2-yl)phenyl]carbonyl}piperidin-3-yl]-2H-1,2,3-triazol-4-yl}propan-2-ol]
Human orexin-2 receptor
  IC50: 31.1 nM
[1]
  IC50: 1810 nM

## C[C@@H]1CC[C@@H](n2cc(C(C)(C)O)cn2)CN1C(=O)c1ccccc1CC(F)F [Example 99, 2-{1-[(3R,6R)-1-{[2-(2,2-Difluoroethyl)phenyl]carbonyl}-6-methylpiperidin-3-yl]-1H-pyrazol-4-yl}propan-2-ol]
Human orexin-2 receptor
  IC50: 38.4 nM
[1]
  IC50: > 10000 nM

## C[C@@H]1CC[C@@H](n2cc(C(C)(C)O)cn2)CN1C(=O)c1ccccc1C1CCC1 [Example 87, 2-(1-{(3R,6R)-1-[(2-Cyclobutylphenyl)carbonyl]-6-methylpiperidin-3-yl}-1H-pyrazol-4-yl)propan-2-ol]
Human orexin-2 receptor
  IC50: 49.3 nM
[1]
  IC50: 3290 nM

## C[C@@H]1CC[C@@H](n2ncc(C(C)(C)O)n2)CN1C(=O)c1ccccc1C1CC1 [Example 6, (2-Cyclopropylphenyl)((2R,5R)-5-(4-(2-hydroxypropan-2-yl)-2H-1,2,3-triazol-2-yl)-2-methylpiperidin-1-yl)methanone]
Human orexin-2 receptor
  IC50: 14.9 nM
[1]
  IC50: 2460 nM

## Cc1nc(-c2ccc(F)cc2C(=O)N2C[C@H](n3ncc(C(C)(C)O)n3)CC[C@H]2C)no1 [Example 30, (5-Fluoro-2-(5-methyl-1,2,4-oxadiazol-3-yl)phenyl)((2R,5R)-5-(4-(2-hydroxypropan-2-yl)-2H-1,2,3-triazol-2-yl)-2-methylpiperidin-1-yl)methanone]
Human orexin-2 receptor
  IC50: 138 nM
[1]
  IC50: > 10000 nM

## C[C@@H]1CC[C@@H](n2ncc(C(C)(C)O)n2)CN1C(=O)c1ccccc1-n1ncnn1 [Example 34, 2-{2-[(3R,6R)-6-methyl-1-{[2-(2H-tetrazol-2-yl)phenyl]carbonyl}piperidin-3-yl]-2H-1,2,3-triazol-4-yl}propan-2-ol]
Human orexin-2 receptor
  IC50: 36.8 nM
[1]
  IC50: > 10000 nM

## C[C@@H]1CC[C@@H](n2ncc(C(C)(C)O)n2)CN1C(=O)c1ccccc1CC(F)(F)F [Example 9, ((2R,5R)-5-(4-(2-Hydroxypropan-2-yl)-2H-1,2,3-triazol-2-yl)-2-methylpiperidin-1-yl)(2-(2,2,2-trifluoroethyl)phenyl)methanone]
Human orexin-2 receptor
  IC50: 30 nM
[1]
  IC50: > 10000 nM

## C[C@@H]1CC[C@@H](n2ncc(C(C)(C)O)n2)CN1C(=O)c1nccnc1-n1cccn1 [Example 43, 2-{2-[(3R,6R)-6-methyl-1-{[3-(1H-pyrazol-1-yl)pyrazin-2-yl]carbonyl}piperidin-3-yl]-2H-1,2,3-triazol-4-yl}propan-2-ol]
Human orexin-2 receptor
  IC50: 109 nM
[1]
  IC50: > 10000 nM

## C[C@@H]1CC[C@@H](n2cc(C(C)(C)O)cn2)CN1C(=O)c1ccccc1C1CC1 [Example 78, 2-(1-{(3R,6R)-1-[(2-Cyclopropylphenyl)carbonyl]-6-methylpiperidin-3-yl}-1H-pyrazol-4-yl)propan-2-ol]
Human orexin-2 receptor
  IC50: 25.5 nM
[1]
  IC50: > 10000 nM

## C[C@@H]1CC[C@@H](n2ncc(C(C)(C)O)n2)CN1C(=O)c1ccc(F)cc1-n1nccn1 [Example 39, 2-{2-[(3R,6R)-1-{[4-fluoro-2-(2H-1,2,3-triazol-2-yl)phenyl]carbonyl}-6-methylpiperidin-3-yl]-2H-1,2,3-triazol-4-yl}propan-2-ol]
Human orexin-2 receptor
  IC50: 27.1 nM
[1]
  IC50: > 10000 nM

## C[C@@H]1CC[C@@H](n2ncc(C(C)(C)O)n2)CN1C(=O)c1ccccc1N1CCCC1 [Example 49, 2-(2-{(3R,6R)-6-methyl-1-[(2-pyrrolidin-1-ylphenyl)carbonyl]piperidin-3-yl}-2H-1,2,3-triazol-4-yl)propan-2-ol]
Human orexin-2 receptor
  IC50: 29.1 nM
[1]
  IC50: 2830 nM

## C[C@@H]1CC[C@@H](n2ncc(C(C)(C)O)n2)CN1C(=O)c1cccnc1OCC(F)(F)F [Example 14, ((2R,5R)-5-(4-(2-Hydroxypropan-2-yl)-2H-1,2,3-triazol-2-yl)-2-methylpiperidin-1-yl)(2-(2,2,2-trifluoroethoxy)pyridin-3-yl)methanone]
Human orexin-2 receptor
  IC50: 15.9 nM
[1]
  IC50: 8790 nM

## CCCc1ccccc1C(=O)N1C[C@H](n2cc(C(C)(C)O)cn2)CC[C@H]1C [Example 76, 2-(1-{(3R,6R)-6-Methyl-1-[(2-propylphenyl)carbonyl]piperidin-3-yl}-1H-pyrazol-4-yl)propan-2-ol]
Human orexin-2 receptor
  IC50: 52.3 nM
[1]
  IC50: > 10000 nM

## C[C@@H]1CC[C@@H](n2ncc([C@@H](O)C(F)(F)F)n2)CN1C(=O)c1ccccc1-n1nccn1 [Example 27, (2-(2H-1,2,3-triazol-2-yl)phenyl)((2R,5R)-2-methyl-5-(4-((R)-2,2,2-trifluoro-1-hydroxyethyl)-2H-1,2,3-triazol-2-yl)piperidin-1-yl)methanone]
Human orexin-2 receptor
  IC50: 17.9 nM
[1]
  IC50: 505 nM

## C[C@@H]1CC[C@@H](n2ncc(Br)n2)CN1C(=O)c1ccccc1-n1nccn1 [Example 29, (2-(2H-1,2,3-triazol-2-yl)phenyl)((2R,5R)-5-(4-bromo-2H-1,2,3-triazol-2-yl)-2-methylpiperidin-1-yl)methanone]
Human orexin-2 receptor
  IC50: 362 nM
[1]
  IC50: > 10000 nM

## CC(C)Oc1ccccc1C(=O)N1C[C@H](n2ncc(C(C)(C)O)n2)CC[C@H]1C [Example 17, ((2R,5R)-5-(4-(2-Hydroxypropan-2-yl)-2H-1,2,3-triazol-2-yl)-2-methylpiperidin-1-yl)(2-isopropoxyphenyl)methanone]
Human orexin-2 receptor
  IC50: 16.1 nM
[1]
  IC50: 3680 nM

## C[C@@H]1CC[C@@H](n2ncc(C(C)(C)O)n2)CN1C(=O)c1cccnc1OC(F)F [Example 7, (2-(Difluoromethoxy)pyridin-3-yl)((2R,5R)-5-(4-(2-hydroxypropan-2-yl)-2H-1,2,3-triazol-2-yl)-2-methylpiperidin-1-yl)methanone]
Human orexin-2 receptor
  IC50: 51.7 nM
[1]
  IC50: > 10000 nM

## C[C@@H]1CC[C@@H](n2ncc(C(C)(C)O)n2)CN1C(=O)c1cccc2ccnn12 [Example 57, 2-{2-[(3R,6R)-6-Methyl-1-(pyrazolo[1,5-a]pyridin-7-ylcarbonyl)piperidin-3-yl]-2H-1,2,3-triazol-4-yl}propan-2-ol]
Human orexin-2 receptor
  IC50: 489 nM
[1]
  IC50: > 10000 nM

## C[C@@H]1CC[C@@H](n2cc(C(C)(C)O)cn2)CN1C(=O)c1cccnc1OCC(F)F [Example 98, 2-{1-[(3R,6R)-1-{[2-(2,2-Difluoroethoxy)pyridin-3-yl]carbonyl}-6-methylpiperidin-3-yl]-1H-pyrazol-4-yl}propan-2-ol]
Human orexin-2 receptor
  IC50: 58.8 nM
[1]
  IC50: > 10000 nM

## CCOc1ccccc1C(=O)N1C[C@H](n2nc(C)c(C(C)(C)O)n2)CC[C@H]1C [Example 69, 2-(2-{(3R,6R)-1-[(2-Ethoxyphenyl)carbonyl]-6-methylpiperidin-3-yl}-5-methyl-2H-1,2,3-triazol-4-yl)propan-2-ol]
Human orexin-2 receptor
  IC50: 7.9 nM
[1]
  IC50: 1950 nM

## CCOc1ncccc1C(=O)N1C[C@H](n2nc(C)c(C(C)(C)O)n2)CC[C@H]1C [Example 65, 2-(2-{(3R,6R)-1-[(2-Ethoxypyridin-3-yl)carbonyl]-6-methylpiperidin-3-yl}-5-methyl-2H-1,2,3-triazol-4-yl)propan-2-ol]
Human orexin-2 receptor
  IC50: 15.1 nM
[1]
  IC50: 2930 nM

## Cc1nn([C@@H]2CC[C@@H](C)N(C(=O)c3cccnc3-c3ccccc3)C2)nc1C(C)(C)O [Example 73, 2-(5-Methyl-2-{(3R,6R)-6-methyl-1-[(2-phenylpyridin-3-yl)carbonyl]piperidin-3-yl}-2H-1,2,3-triazol-4-yl)propan-2-ol]
Human orexin-2 receptor
  IC50: 17.4 nM
[1]
  IC50: 2460 nM

## C[C@@H]1CC[C@@H](n2ncc(C(C)(C)O)n2)CN1C(=O)c1ccsc1-n1nccn1 [Example 33, 2-{2-[(3R,6R)-6-methyl-1-{[2-(2H-1,2,3-triazol-2-yl)thiophen-3-yl]carbonyl}piperidin-3-yl]-2H-1,2,3-triazol-4-yl}propan-2-ol]
Human orexin-2 receptor
  IC50: 18.4 nM
[1]
  IC50: 2560 nM

## CCCc1ncccc1C(=O)N1C[C@H](n2ncc(C(C)(C)O)n2)CC[C@H]1C [Example 3, ((2R,5R)-5-(4-(2-Hydroxypropan-2-yl)-2H-1,2,3-triazol-2-yl)-2-methylpiperidin-1-yl)(2-propylpyridin-3-yl)methanone]
Human orexin-2 receptor
  IC50: 1060 nM
[1]
  IC50: > 10000 nM
